From ChEMBL document CHEMBL1201862, “PubChem BioAssay data set” (2004)
Active and inactive are the calls of the source.

Experiments:
[1] = biological target: Cyclin-dependent kinase 5/CDK5 activator 1 (Homo sapiens, UniProt Q00535); experiment: CDK5/p35 kinase inhibitors, dose response, biochemical, cherry-picked samples, set 2 (AID 504545)
[2] = biological target: T1, Eukaryotic translation initiation factor 2-alpha kinase 3 (Homo sapiens, UniProt Q9NZJ5); experiment: Dose response cell-based high-throughput screening assay to measure PERK inhibition. [Related pubchem assays: 1416 ]; format: functional
T1 sequence (Q9NZJ5 whole entry): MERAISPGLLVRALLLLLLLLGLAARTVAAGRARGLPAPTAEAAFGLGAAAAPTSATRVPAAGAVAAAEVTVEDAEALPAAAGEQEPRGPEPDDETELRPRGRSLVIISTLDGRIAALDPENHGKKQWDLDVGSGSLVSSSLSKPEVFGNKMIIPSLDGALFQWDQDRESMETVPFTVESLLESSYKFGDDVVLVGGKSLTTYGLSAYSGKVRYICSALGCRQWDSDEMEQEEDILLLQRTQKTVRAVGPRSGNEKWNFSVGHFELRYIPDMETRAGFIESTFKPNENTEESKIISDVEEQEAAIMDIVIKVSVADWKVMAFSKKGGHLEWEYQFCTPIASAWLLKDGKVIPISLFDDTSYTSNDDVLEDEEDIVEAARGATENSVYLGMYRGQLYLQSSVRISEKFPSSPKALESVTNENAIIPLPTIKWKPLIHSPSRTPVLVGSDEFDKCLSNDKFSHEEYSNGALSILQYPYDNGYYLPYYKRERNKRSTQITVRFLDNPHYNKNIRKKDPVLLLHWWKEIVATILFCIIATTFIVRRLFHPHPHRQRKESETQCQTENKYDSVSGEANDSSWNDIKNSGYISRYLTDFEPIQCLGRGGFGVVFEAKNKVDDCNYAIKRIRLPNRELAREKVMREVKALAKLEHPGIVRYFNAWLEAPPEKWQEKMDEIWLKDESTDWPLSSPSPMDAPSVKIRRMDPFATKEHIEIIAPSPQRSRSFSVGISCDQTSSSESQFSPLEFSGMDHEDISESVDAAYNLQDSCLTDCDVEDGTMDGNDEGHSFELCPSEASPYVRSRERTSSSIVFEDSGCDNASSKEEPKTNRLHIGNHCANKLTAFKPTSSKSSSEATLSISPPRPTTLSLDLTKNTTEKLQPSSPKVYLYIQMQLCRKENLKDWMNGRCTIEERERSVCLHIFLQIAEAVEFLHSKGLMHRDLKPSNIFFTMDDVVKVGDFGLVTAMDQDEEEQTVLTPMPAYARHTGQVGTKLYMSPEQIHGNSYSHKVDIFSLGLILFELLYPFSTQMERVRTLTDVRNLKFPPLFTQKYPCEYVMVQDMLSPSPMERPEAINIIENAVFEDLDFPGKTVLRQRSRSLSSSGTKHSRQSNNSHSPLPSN

[3] = biological target: T1, Eukaryotic translation initiation factor 2-alpha kinase 3; experiment: Counterscreen assay for PERK inhibitors: Dose response cell-based high throughput screening assay to measure inhibition of PERK at 6 hours. [Related pubchem assays: 1522, 1416 ]; format: functional
[4] = polyadenylation inhibitors in yeast reporter, dose response, luminescence, S. cerevisiae SKY197-pL101 (AID 2525); format: functional, cell-based
BJ [5] = experiment: cytotoxicity toward BJ-TERT fibroblasts, dose response, cell-based, RAS-independent, luminescence (AID 1933); format: functional; conditions: Homo sapiens
BJ [6] = experiment: cells; format: functional, cell-based; conditions: Homo sapiens
[7] = growth suppression of PTEN-null colon cells, dose response, cell-based, HCT116 PTEN knockout (AID 1047); format: functional;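 also: HCT116 colon tumor cells with PTEN knocked out; cells exposed to compound for 60 hours before readout; potency for loss of cell viability measured by luminescence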
[8] = cytotoxicity toward DRD oncogenic fibroblasts, dose response, cell-based, non-viral oncogenic, luminescence (AID 1934); format: functional; conditions: Homo sapiens
[9] = growth suppression of beta-catenin-knockout colon cells, dose response, cell-based, HCT116, human colon tumor (AID 1045); format: functional;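 also: HCT116 colon tumor cells with beta catenin knocked out; cells exposed to compound for 60 hours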
[10] = biological target: Sphingosine 1-phosphate receptor 2 (Homo sapiens, UniProt O95136); experiment: Dose Response Cell Based Assay for Antagonists of the S1P2 Receptor. [Related pubchem assays: 856, 736 ]; format: functional
Sphingosine 1-phosphate receptor 2, sequence (O95136 whole entry): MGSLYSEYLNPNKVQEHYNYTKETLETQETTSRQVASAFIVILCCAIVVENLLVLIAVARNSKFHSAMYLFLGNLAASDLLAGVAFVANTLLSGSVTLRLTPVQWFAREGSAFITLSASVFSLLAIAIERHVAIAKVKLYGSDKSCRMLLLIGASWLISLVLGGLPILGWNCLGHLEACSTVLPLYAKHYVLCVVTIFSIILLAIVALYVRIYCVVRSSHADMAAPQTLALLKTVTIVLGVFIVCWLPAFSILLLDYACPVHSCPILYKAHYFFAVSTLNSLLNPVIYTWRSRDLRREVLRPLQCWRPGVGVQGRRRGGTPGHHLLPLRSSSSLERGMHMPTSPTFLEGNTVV

[11] = cytotoxicity in HEK-293T cells, dose response, cytotoxicity control for TCR NF-kB inhibitor project, luminescence, T-cell screen hits (AID 489026); format: functional, cell-based;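 also: cells exposed to compound about 14 hours before the viability readout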
BJ [12] = experiment: cytotoxicity toward BJ-TERT-LT-ST fibroblasts, dose response, cell-based, RAS-independent, luminescence (AID 1935); format: functional; conditions: Homo sapiens;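 also: BJ fibroblasts immortalized with TERT plus LT and ST oncogenes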
[13] = biological target: T2, Calpain-2 catalytic subunit (Sus scrofa, UniProt P43367); experiment: pig calpain II inhibitor potency, dose response, biochemical, fluorogenic peptide substrate (AID 1420); format: functional
T2 sequence (P43367 whole entry): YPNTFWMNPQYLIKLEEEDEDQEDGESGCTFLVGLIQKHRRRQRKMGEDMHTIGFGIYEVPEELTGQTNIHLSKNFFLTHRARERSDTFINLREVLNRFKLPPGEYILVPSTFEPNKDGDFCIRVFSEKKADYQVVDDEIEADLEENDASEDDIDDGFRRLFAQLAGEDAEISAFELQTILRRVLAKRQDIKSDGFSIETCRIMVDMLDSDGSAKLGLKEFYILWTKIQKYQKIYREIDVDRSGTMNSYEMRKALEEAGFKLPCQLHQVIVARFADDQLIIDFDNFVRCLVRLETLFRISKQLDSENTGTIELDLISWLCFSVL

[14] = biological target: NACHT, LRR and PYD domains-containing protein 3 (Homo sapiens, UniProt Q96P20); experiment: NALP3 inhibitors in yeast, dose response, luminescent (AID 488799); format: functional
NACHT, LRR and PYD domains-containing protein 3, sequence (Q96P20 whole entry, the tested form may be a part): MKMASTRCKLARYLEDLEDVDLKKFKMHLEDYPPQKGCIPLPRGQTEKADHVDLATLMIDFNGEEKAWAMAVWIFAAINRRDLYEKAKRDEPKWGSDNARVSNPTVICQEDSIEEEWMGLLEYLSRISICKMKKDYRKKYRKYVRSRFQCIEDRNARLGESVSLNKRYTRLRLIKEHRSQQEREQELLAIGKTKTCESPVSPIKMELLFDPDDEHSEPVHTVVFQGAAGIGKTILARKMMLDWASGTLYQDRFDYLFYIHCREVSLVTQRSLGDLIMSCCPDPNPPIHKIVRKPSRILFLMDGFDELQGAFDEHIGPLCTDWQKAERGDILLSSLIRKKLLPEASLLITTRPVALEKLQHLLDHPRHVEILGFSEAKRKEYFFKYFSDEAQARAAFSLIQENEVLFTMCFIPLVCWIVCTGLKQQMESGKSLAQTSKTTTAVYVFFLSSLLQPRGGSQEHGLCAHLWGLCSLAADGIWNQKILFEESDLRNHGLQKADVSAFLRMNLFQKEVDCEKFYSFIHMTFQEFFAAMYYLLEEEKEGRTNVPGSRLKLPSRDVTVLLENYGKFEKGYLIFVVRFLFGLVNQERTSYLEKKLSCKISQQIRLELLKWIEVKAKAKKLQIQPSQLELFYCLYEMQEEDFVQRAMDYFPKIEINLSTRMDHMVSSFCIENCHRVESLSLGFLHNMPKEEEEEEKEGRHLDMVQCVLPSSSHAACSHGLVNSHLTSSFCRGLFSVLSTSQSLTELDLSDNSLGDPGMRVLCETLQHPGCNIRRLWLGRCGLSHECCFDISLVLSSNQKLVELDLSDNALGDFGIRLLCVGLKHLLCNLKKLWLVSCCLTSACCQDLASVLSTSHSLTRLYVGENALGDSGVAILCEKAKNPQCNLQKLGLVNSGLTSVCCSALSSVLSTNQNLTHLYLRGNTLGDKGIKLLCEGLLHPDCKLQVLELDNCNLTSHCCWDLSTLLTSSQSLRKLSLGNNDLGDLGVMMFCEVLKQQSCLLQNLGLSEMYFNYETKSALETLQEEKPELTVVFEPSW

[15] = biological target: Signal transducer and activator of transcription 3 (Homo sapiens, UniProt P40763); experiment: STAT3 activators, late-stage profile, late-stage follow-up, cell-based, STAT1 reporter, BCL3 qPCR, cytotoxicity, panel member STAT3 Activation (AID 2049)
Signal transducer and activator of transcription 3, sequence (P40763 whole entry): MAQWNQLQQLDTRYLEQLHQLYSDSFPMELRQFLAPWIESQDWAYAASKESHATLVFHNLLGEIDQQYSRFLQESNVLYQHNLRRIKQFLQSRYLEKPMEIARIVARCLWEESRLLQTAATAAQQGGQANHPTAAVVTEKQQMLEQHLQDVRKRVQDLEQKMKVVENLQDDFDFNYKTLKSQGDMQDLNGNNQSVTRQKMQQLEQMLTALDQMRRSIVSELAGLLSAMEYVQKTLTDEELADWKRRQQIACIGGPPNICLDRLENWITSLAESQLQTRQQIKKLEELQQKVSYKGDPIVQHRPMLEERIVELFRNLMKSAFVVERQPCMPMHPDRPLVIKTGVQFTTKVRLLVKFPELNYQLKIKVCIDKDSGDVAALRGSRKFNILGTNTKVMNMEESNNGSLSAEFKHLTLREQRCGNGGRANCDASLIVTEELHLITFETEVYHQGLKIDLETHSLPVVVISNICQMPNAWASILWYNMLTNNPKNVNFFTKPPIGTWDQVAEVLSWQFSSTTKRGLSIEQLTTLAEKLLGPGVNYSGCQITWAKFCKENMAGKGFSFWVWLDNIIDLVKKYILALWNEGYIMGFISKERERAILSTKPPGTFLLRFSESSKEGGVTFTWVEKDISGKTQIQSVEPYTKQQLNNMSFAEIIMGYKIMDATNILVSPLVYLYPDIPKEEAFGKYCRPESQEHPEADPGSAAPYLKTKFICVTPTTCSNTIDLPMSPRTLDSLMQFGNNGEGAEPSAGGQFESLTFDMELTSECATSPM

Wee1-like protein kinase = Wee1-like protein kinase (Homo sapiens, UniProt P30291); experiment: G2/M cell cycle arrest in HeLa, late-stage follow-up, mechanism study for Wee1 degradation inhibitor project, FACS, panel member Wee1 Degradation (AID 2088)
Wee1-like protein kinase, sequence (P30291 whole entry): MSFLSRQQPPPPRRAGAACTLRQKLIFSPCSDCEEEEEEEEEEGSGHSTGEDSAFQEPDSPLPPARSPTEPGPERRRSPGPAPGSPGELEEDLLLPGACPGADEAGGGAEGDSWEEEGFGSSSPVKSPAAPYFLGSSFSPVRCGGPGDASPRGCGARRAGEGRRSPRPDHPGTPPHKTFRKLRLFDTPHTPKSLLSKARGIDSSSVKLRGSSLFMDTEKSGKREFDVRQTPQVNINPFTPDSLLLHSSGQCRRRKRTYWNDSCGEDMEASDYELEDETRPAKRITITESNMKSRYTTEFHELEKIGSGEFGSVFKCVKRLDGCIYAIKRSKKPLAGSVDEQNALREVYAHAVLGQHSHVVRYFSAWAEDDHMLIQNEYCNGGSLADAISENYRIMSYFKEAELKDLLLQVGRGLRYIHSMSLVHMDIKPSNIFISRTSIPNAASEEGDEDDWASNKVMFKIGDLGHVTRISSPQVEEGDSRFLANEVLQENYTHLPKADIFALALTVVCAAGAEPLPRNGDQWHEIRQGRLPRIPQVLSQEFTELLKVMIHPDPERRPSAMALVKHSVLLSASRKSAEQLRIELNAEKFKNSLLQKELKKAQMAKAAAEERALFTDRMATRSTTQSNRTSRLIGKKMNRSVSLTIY

[16] = biological target: G2/mitotic-specific cyclin-B1 (Homo sapiens, UniProt P14635); experiment: G2/M cell cycle arrest in HeLa, late-stage follow-up, mechanism study for Wee1 degradation inhibitor project, FACS, panel member Cyclin B Degradation (AID 2088)
G2/mitotic-specific cyclin-B1, sequence (P14635 whole entry): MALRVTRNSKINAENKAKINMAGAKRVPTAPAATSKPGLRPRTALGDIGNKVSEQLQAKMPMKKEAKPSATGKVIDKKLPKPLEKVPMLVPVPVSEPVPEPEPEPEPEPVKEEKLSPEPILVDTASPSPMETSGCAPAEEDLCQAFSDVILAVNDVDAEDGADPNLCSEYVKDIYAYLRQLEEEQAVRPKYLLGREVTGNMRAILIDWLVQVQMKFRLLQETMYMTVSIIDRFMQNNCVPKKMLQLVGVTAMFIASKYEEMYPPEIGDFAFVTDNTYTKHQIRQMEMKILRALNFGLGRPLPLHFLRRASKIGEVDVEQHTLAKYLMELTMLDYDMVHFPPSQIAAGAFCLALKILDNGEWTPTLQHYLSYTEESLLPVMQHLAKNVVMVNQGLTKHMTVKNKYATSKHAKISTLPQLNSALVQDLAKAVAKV

[17] = biological target: T3, Alkaline phosphatase, tissue-nonspecific isozyme (Homo sapiens, UniProt P05186)
T3 sequence (P05186 whole entry): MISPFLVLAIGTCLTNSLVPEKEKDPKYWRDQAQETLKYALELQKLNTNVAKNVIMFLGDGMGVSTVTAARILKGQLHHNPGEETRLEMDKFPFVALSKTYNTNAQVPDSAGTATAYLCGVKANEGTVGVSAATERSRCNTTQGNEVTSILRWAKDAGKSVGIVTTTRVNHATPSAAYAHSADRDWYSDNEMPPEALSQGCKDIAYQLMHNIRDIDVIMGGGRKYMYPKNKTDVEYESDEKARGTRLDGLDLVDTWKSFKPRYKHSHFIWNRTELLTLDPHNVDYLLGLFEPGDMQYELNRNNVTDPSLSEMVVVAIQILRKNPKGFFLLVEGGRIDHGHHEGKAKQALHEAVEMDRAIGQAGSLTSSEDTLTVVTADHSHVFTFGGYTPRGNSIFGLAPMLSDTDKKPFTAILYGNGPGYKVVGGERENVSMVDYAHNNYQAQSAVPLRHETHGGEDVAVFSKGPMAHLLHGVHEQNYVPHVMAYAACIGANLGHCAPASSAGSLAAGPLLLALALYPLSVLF

Prothrombin = Prothrombin (Homo sapiens, UniProt P00734); experiment: Thrombin 1536 HTS Dose Response Confirmation. [Related pubchem assays: 1046 (Thrombin 1536 HTS; hits were confirmed in this assay)]; format: functional
[18] = Luminescence Cell-Based Dose Response HTS to Identify Inhibitors of 5'UTR Stem-Loop Driven Prion Protein mRNA Translation in H4 Neuroglioblastoma Cells. [Related pubchem assays: 1827 (Project Summary), 1813 (Primary HTS)]; format: functional
[19] = inhibitors of firefly luciferase expression or activity, dose response, H4 neuroglioma cells, luminescence (AID 1990); format: functional, cell-based
[20] = inhibitors of SNCA 5'UTR-driven reporter translation, confirmation, H4 neuroglioma cells, luminescence (AID 1988); format: functional, cell-based
[21] = microbe, parasite or virus in culture; format: functional; conditions: Mycobacterium tuberculosis
[22] = Cytotoxicity screening for potential Inhibitors of Bacterial Capsule Biogenesis. [Related pubchem assays (depositor defined):AID488970]; format: functional
[23] = biological target: Heat shock protein HSP 90-alpha (Homo sapiens, UniProt P07900); format: functional, organism-based

Cyclin-dependent kinase 5/CDK5 activator 1, sequence (Q00535 whole entry): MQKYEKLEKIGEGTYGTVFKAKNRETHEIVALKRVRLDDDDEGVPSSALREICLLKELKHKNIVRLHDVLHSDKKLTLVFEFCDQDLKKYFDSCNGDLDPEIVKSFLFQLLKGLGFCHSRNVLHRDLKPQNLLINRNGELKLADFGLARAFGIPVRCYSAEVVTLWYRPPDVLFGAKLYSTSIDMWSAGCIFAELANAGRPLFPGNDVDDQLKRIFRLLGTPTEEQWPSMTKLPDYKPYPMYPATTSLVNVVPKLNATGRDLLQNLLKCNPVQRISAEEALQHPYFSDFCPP
Cyclin-dependent kinase 5/CDK5 activator 1, sequence (Q15078 whole entry, further chain): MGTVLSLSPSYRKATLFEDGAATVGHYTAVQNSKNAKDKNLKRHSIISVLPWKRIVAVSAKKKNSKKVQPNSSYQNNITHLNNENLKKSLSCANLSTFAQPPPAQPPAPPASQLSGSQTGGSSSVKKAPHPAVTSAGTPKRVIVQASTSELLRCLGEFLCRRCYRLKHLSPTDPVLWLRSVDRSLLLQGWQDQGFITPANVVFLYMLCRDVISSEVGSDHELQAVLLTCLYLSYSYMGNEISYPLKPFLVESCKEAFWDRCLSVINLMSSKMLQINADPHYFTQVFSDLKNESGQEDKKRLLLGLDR

O=C1NCCCc2c1oc1ccc(O)cc21
AC50 [1]: 10.7 µM (active)

COc1ccc(C(=O)NCC(=O)OC2CCCCC2=O)cc1 (stereo not given)
EC50 [2]: > 55.7 µM (not active)
EC50 [3]: > 55.7 µM (not active)

N#C/C(=C/c1ccc([N+](=O)[O-])o1)c1nc2ccccc2[nH]1
EC50 [4]: 3.08 µM (active)

CCCCCCCCCn1c2c(c(=N)c3c1CCC3)CCC2
EC50 (BJ [5]): 1.15 µM (active)
EC50 (BJ [6]): 2.07 µM (active)
EC50 [7]: 0.728 µM (active)
EC50 [8]: 3.16 µM (active)
EC50 [9]: 0.561 µM (active)
IC50 [10]: 9.03 µM (active)
IC50 [11]: 47.8 µM (inactive)
EC50 (BJ [12]): 8.37 µM (inconclusive)
IC50 [13]: 7.18 µM (active)
IC50 [14]: 9.02 µM (active)

COc1ccc(Cl)cc1NC(=O)c1cc(C2CC2)on1
EC50 [15]: 0.00455 µM (active)

Cc1cc(O)nc(-n2nc(C)cc2NC(=O)c2ccccc2Cl)n1
EC50 (Wee1-like protein kinase): > 16.6 µM (active)
EC50 [16]: > 49.7 µM (inactive)

CCn1c(C)nc2cc(C(=O)N/N=C(\C)c3ccc(OC)cc3O)ccc21
EC50 [17]: > 100 µM (not active)
IC50 (Prothrombin): > 50 µM (not active)
EC50 [18]: 11.2 µM (active)
EC50 [19]: 12.8 µM (active)
EC50 [20]: 9.16 µM (active)

O=C1C2(Cl)C3(Cl)C4(Cl)C(Cl)(Cl)C5(Cl)C3(Cl)C1(Cl)C5(Cl)C24Cl (stereo not given) [KEPONE]
CC50 [21]: 22.6 µM (active)
CC50 [22]: 8.69 µM (active)
AC50 [23]: 2.68 µM (active)
